From patent EP1878431B1, “MEDICINAL AGENT FOR PREVENTING PROGRESSION OF APOPTOTIC AND JUGULATING NECROTIC CHANGES IN THE ORGANISM TISSUES” (Obschestvo S Ogranichennoi Otvetstvennostyu …, priority 2005, dated 2006)
Marks after values point to notes of the source that are not given here.

Tests used:
myocardium = experiment: Myocardium ischemia (coronary artery ligation) with arterial hypertension: arrhythmia, ischemia and necrosis zones, myoglobin; assay type: in vivo, rats; details: for Arrhythmia duration / Ischemia zone, % of myocardium mass / Necrosis zone, % from ischemia zone / Necrosis zone, % from myocardium mass: 6 hours after bandaging
Experimental: (§1) The apoptosis activity was judged by poly-(ADP-ribose)-polymerase (key ferment of apoptotic cell loss), which was determined using Amersham Pharmacia Biotech test sets. The extent of necrotic cardiomyocites damage was estimated according to the quantity of myoglobin entry in the blood, in which the myoglobin content was measured spectrophotometrically.
(§2) Arterial hypertensia of normotensive rats was reproduced by imposing the ligature in the form of a titanic heliciform ring on a site of an aorta with the arteries of kidneys departing from it. The reached narrowing of an aortic lumen was 2/3 in diameter. Animals were operated on under anesthetic, in which their abdominal cavity was opened. The arterial pressure was measured by use of a gauge with a rubber cuff on the animal's tail. A signal from the gauge was recorded on a Mingograph EMT 118. On the 30th day after the operation, all of the animals were divided into two groups: in the first group the animal's left descending interventricular artery at its top third was ligated - the hard ischemia of a myocardium, and in the second group, an irreversible bilateral occlusion of the general carotids was reproduced with a silk thread (see example 9). […] Both groups of animals were euthanased on the 10th day after the operation. All of the investigated connections were introduced intravenously (this method of introduction was chosen to reflect the maximum effect of the medication) within 15 minutes after coronary artery bandaging. The developed means was also introduced intravenously in the form of an infusion in 5% glucose, or in tablet form with an oral administration, or in a kind of suppository.

[1] = system: poly-(ADP-ribose)-polymerase; experiment: PARP activity during myocardium ischemia with arterial hypertension; assay type: in vivo, rats; details: no unit in table (b49 gives the norm in pkMole/mg of protein)
Experimental: as §1
as §2, with “All of the investigated connections were introduced intravenously (this method of introduction was chosen to reflect the maximum effect of the medication) within 15 minutes after coronary artery bandaging. The developed means was also introduced intravenously in the form of an infusion in 5% glucose, or in tablet form with an oral administration, or in a kind of suppository.” left out

[2] = system: poly-(ADP-ribose)-polymerase; experiment: PARP activity in myocardium and brain at acute hypobaric hypoxia with hypercapnia; assay type: in vivo
Experimental: as §1
(§3) Example 7. Acute hypobaric anoxia (as one of the most adequate methods of hypoxia study) in combination with hypercapnia was modeled by "lifting" low-resistant to hypoxia animals to a critical altitude of 11,500 m at a speed of 1,200 m/min. If at this altitude for more than 10 minutes, hypoxia modeling stopped, and the animals were considered conditionally "high-resistant", and animals that lived less than 10 minutes were considered conditionally "low-resistant". In the present study, only animals with low-resistance to hypoxia were used. During the second experiment of "lifting" animals in order to simulate hypobaric anoxia, in combination with hypercapnia, these parameters were recorded: loss of pose time (LPT), lifetime - time from the end of "lifting" until respiratory standstill or the first atonal inhalation occurrence, restitution time (RT) - from a respiratory standstill until active pose restoration after descending the animal. The hypoxia stability factor was calculated as a ratio of the duration to the restitution time, an increase of which means the growth of the organism's resistance to the occurrence of extreme oxygen deprivation.
(§4) The studied substances were injected intravenously (method that reflects the maximum effect of the medication) 15 minutes prior to the experiment. The designed medication was also injected intravenously in the form of an infusion or pills that were administered orally or a suppository.

[3] = system: low-resistant to hypoxia animals; experiment: Acute hypobaric anoxia in combination with hypercapnia (lifting to 11,500 m): lifetime, loss of pose time, restitution time, stability factor; assay type: in vivo; details: for Stability factor: ratio of duration to restitution time
Experimental: as §3, §4

[4] = 100 mg/kg intravenously within 15 minutes after coronary artery bandaging
[5] = 50 mg/kg intravenously 15 minutes prior to the experiment
[6] = 100 mg/kg intravenously 15 minutes prior to the experiment
[7] = 500 mg/kg intravenously 15 minutes prior to the experiment
[8] = 75 mg/kg intravenously within 15 minutes after coronary artery bandaging
[9] = 1.0 mg/kg intravenously 15 minutes prior to the experiment
[10] = 10.0 mg/kg intravenously 15 minutes prior to the experiment

CCc1nc(C)ccc1O [3-hydroxy-6-methyl-2-ethylpyridine]
Arrhythmia duration (myocardium; [4]): 58 ± 9 min | Ischemia zone, % of myocardium mass (myocardium; [4]): 39±3 % of myocardium mass | Necrosis zone, % from ischemia zone (myocardium; [4]): 67±3 % from ischemia zone | Necrosis zone, % from myocardium mass (myocardium; [4]): 26±9 % from myocardium mass | Myoglobin content after 8 hours (myocardium; [4]): 127±12 mcg/g dry solid matter | PARP activity [1, 4]: 0,256± 0,032

CCc1nc(C)ccc1O.O=C(O)CCC(=O)O [3-oxy-3-methyl-6-oxypyridine succinate]
PARP activity, % of control brain [2, 5]: 312±29 % of control | PARP activity, % of control myocardium [2, 5]: 204±21 % of control | PARP activity, % of control brain [2, 6]: 317±21 % of control | PARP activity, % of control myocardium [2, 6]: 208±29 % of control | PARP activity, % of control brain [2, 7]: 302±32 % of control | PARP activity, % of control myocardium [2, 7]: 202±19 % of control | Duration [3, 5]: 778 ± 107 s | Loss of Pose Time [3, 5]: 136 ± 22 s | Restitution time [3, 5]: 680 ± 69 s | Stability factor [3, 5]: 1.14±0.12 | Duration [3, 6]: 707 ± 145 s | Loss of Pose Time [3, 6]: 156 ± 29 s | Restitution time [3, 6]: 642 ± 69 s | Stability factor [3, 6]: 1.10±0.13 | Duration [3, 7]: 784 ± 107 s | Loss of Pose Time [3, 7]: 136 ± 39 s | Restitution time [3, 7]: 690 ± 83 s | Stability factor [3, 7]: 1.14±0.10

C[N+](C)(C)C[C@H](O)CC(=O)[O-] [L-carnitine]
Arrhythmia duration (myocardium; [8]): 68 ± 8 min | Ischemia zone, % of myocardium mass (myocardium; [8]): 40±3 % of myocardium mass | Necrosis zone, % from ischemia zone (myocardium; [8]): 70±5 % from ischemia zone | Necrosis zone, % from myocardium mass (myocardium; [8]): 28±9 % from myocardium mass | Myoglobin content after 8 hours (myocardium; [8]): 132±10 mcg/g dry solid matter | PARP activity [1, 8]: 0,406± 0,030

O=C([O-])CCCO.[Li+] [Lithium oxybutyrate]
PARP activity, % of control brain [2, 6]: 300±82 % of control | PARP activity, % of control myocardium [2, 6]: 200±33 % of control | Duration [3, 6]: 1345 ± 89 s | Loss of Pose Time [3, 6]: 436+90** sec | Restitution time [3, 6]: 885 ± 82 s | Stability factor [3, 6]: 1.4±0.2

NC(=O)c1ccc[n+]([C@@H]2O[C@H](COP(=O)([O-])OP(=O)(O)OC[C@H]3O[C@@H](n4cnc5c(N)ncnc54)[C@H](O)[C@@H]3O)[C@@H](O)[C@H]2O)c1 [NAD, nicotine-amide-adenine-dinucleotide]
PARP activity, % of control myocardium [2, 9]: 100±29 % of control | PARP activity, % of control myocardium [2, 10]: 103±24 % of control | Duration [3, 9]: 2034 ± 234 s | Loss of Pose Time [3, 9]: 936 ± 79 s | Restitution time [3, 9]: 1042 ± 44 s | Stability factor [3, 9]: 1.95±0.25 | Duration [3, 10]: 2077 ± 109 s | Loss of Pose Time [3, 10]: 1036 ± 91 s | Restitution time [3, 10]: 1000 ± 82 s | Stability factor [3, 10]: 2.08±0.22

NC(=S)N=C(N)N [hutimine]
PARP activity, % of control brain [2, 6]: 290±83 % of control | PARP activity, % of control myocardium [2, 6]: 212±23 % of control | Duration [3, 6]: 986 ± 87 s | Loss of Pose Time [3, 6]: 186 ± 32 s | Restitution time [3, 6]: 685 ± 82 s | Stability factor [3, 6]: 1.45±0.12

OC[C@H]1O[C@@H](n2cnc3c(O)ncnc32)[C@H](O)[C@@H]1O [inosine]
PARP activity, % of control brain [2, 6]: 242±24 % of control | PARP activity, % of control myocardium [2, 6]: 192±23 % of control | Duration [3, 6]: 754 ± 30 s | Loss of Pose Time [3, 6]: 186 ± 39 s | Restitution time [3, 6]: 680 ± 69 s | Stability factor [3, 6]: 1.16±0.16

O=C(O)CCC(=O)O [succinic acid]
PARP activity, % of control brain [2, 6]: 325±20 % of control | PARP activity, % of control myocardium [2, 6]: 225±22 % of control | Duration [3, 6]: 747 ± 90 s | Loss of Pose Time [3, 6]: 121 ± 34 s | Restitution time [3, 6]: 1042 ± 69 s | Stability factor [3, 6]: 1.0±0.2
